From paper PMC13371181, “A paracrine-to-autocrine shunt of GREM1 fuels colorectal cancer metastasis via ACVR1C” (Molecular Cancer, 2026)
Entries after “also recorded” stand apart in the source; their conditions may differ.

What was measured:
[1] = tested on: ACVR1C–SMAD2/3 pathway in HCT116 and SW480 cells; assay: Immunoblotting p-SMAD2/3 (ACVR1C pathway); assay type: cell-based, human; details: HCT116 and SW480 cells, immunoblotting; GREM1-CM + GREM1 BAb or + SB505124 (1 µM)
Procedure: (§1) To investigate the effect of secreted GREM1 on CRC cells, an in vitro GREM1 secretion system was established using HEK293 cells. Stably GREM1-expressing cells (pcDNA3.1-GREM1) and empty-vector transfected cells (pcDNA3.1) were cultured in DMEM/F12 medium with 10% FBS until 40% confluence. After complete removal of the normal culture medium, HEK293-GREM1 and HEK293-Vec cells were continuously cultured in DMEM/F12 medium without FBS for 5 days before medium collection. GREM1 or Vector conditioned medium (GREM1-CM/Vec-CM) was then centrifuged at 1000 rpm for 30 min and the supernatant was collected for further study.
Protein was extracted from the cells with RIPA buffer (Beyotime, P0018) or NP40 lysis buffer (Beyotime, P0013F) and separated by SDS-PAGE, and transferred to polyvinylidene difluoride membranes. […] Band intensity was quantified using Fiji (ImageJ) by grayscale analysis.

HCT116 and SW480 cells = assay: Transwell invasion assay; assay type: cell-based, human; details: HCT116 and SW480, Matrigel transwell, 48 h; n = 3 independent experiments
Procedure: as §1
Cells (1 × 10^5) were seeded in serum-free medium in the Matrigel-coated (Corning, 354480) transwell chambers (24-well insert, 8-µm pore size; BD Biosciences) for invasion experiments. The lower chamber was filled with RPMI1640 or DMEM containing 20% FBS. The migration of HCT116 and SW480 cells was measured in three random visual fields and quantified by microscopy after 48 h of incubation, followed by staining with DAPI or crystal violet. The invasive capacity of the cells was assessed using ImageJ software for quantification.

HCT116-luc cells = assay: Cecum-to-liver metastasis model, GREM1-CM-pre-treated HCT116-luc in NOG mice; assay type: in vivo, human cells in NOG mice; details: cecum wall, SB505124 10 mg/kg i.p. every other day, IVIS, n = 5 mice per group
From the text: To determine the role of the ACVR1C–SMAD2/3 axis in GREM1-mediated EMT in vivo, we harnessed HCT116 cells carrying a luciferase reporter (HCT116-luc), which stably express either shACVR1C or a scramble shRNA. These cells were pretreated with GREM1-CM prior to their subcutaneous transplantation into nude mice. […] These findings were further corroborated by IF staining of EMT markers, including E-CAD and SNAIL (Figs. 5E–G). As a complementary pharmacological approach, we inhibited ACVR1C-mediated SMAD2/3 activation using SB505124. […] Importantly, to investigate the impact of the ACVR1C–SMAD2/3 axis on metastasis, we injected GREM1-CM-pre-treated HCT116-luc cells, stably expressing either shACVR1C or scramble shRNA, into the tail vein of nude mice. […]
Figure S8. […] E-G, Representative IF images (E) and quantification (F, G) of E-CAD (green), SNAIL (red), and DAPI (blue) staining in tumors from the indicated groups. […] H, I, Representative IVIS images (H) and quantification (I) of NOG mice that were injected with HCT116-luc cells in the cecum wall and treated with either SB505124 or vehicle via abdominal injection. Liver metastases were imaged and quantified using the IVIS Lumina Imaging System (n = 5 mice per group). […] P values were calculated using one-way ANOVA with Bonferroni multiple-comparison test (B–D, F, and G) or two-tailed Student’s t-test (I).

## Cc1cccc(-c2[nH]c(C(C)(C)C)nc2-c2ccc3c(c2)OCO3)n1 [SB505124]
[1]
  GREM1-CM-induced p-SMAD2/3, effect of inhibitor: significantly blocked GREM1-CM–induced p-SMAD2/3 activation and EMT
HCT116 and SW480 cells
  GREM1-CM-induced invasion, effect of inhibitor: abolished; also recorded: significantly reduced
HCT116-luc cells
  liver metastasis: significant reduction in liver metastasis; also recorded: markedly attenuated the metastatic phenotype induced by GREM1-CM
